# In patent publication US20120220562A1, “Anti-Viral Compounds” (ABBOTT LABAORATORIES, priority 2011, published 2012):
# Test system: HCV 1b-Con1 replicon
# Test: HCV 1b-Con1 replicon assay in the presence of 5% FBS
# Format: cell-based
# Settings: Hepatitis C virus
row,SMILES,EC50 [nM]
1,"COC(=O)N[C@H](C(=O)N1CCC[C@H]1c1nc2cc([C@H]3CC[C@H](c4cc5nc([C@@H]6CCCN6C(=O)[C@@H](NC(=O)OC)C(C)C)[nH]c5cc4F)N3c3ccc(N4CCCCC4)c(F)c3)c(F)cc2[nH]1)C(C)C [Example 6.9, methyl {(2S)-1-[(2S)-2-(6-fluoro-5-{(2R,5R)-5-{6-fluoro-2-[(2S)-1-{(2S)-2-[(methoxycarbonyl)amino]-3-methylbutanoyl}pyrrolidin-2-yl]-1H-benzimidazol-5-yl}-1-[3-fluoro-4-(piperidin-1-yl)phenyl]pyrrolidin-2-yl}-1H-benzimidazol-2-yl)pyrrolidin-1-yl]-3-methyl-1-oxobutan-2-yl}carbamate]",< 0.1
2,"COC(=O)N[C@H](C(=O)N1CCC[C@H]1c1nc2cc(F)c([C@H]3CC[C@H](c4cc5[nH]c([C@@H]6CCCN6C(=O)[C@@H](NC(=O)OC)C(C)C)nc5cc4F)N3c3cc(F)c(N4CCC(Cc5ccccc5)CC4)c(F)c3)cc2[nH]1)C(C)C [Example 4.44, methyl {(2S)-1-[(2S)-2-{6-[(2R,5R)-1-[4-(4-benzylpiperidin-1-yl)-3,5-difluorophenyl]-5-{5-fluoro-2-[(2S)-1-{(2S)-2-[(methoxycarbonyl)amino]-3-methylbutanoyl}pyrrolidin-2-yl]-1H-benzimidazol-6-yl}pyrrolidin-2-yl]-5-fluoro-1H-benzimidazol-2-yl}pyrrolidin-1-yl]-3-methyl-1-oxobutan-2-yl}carbamate]",< 0.1
3,"COC(=O)N[C@H](C(=O)N1CCC[C@H]1c1nc2cc([C@H]3CC[C@H](c4cc5nc([C@@H]6CCCN6C(=O)[C@@H](NC(=O)OC)C(C)C)[nH]c5cc4F)N3c3cc(F)c(N4CCC(C(C)(C)C)CC4)c(F)c3)c(F)cc2[nH]1)C(C)C [Example 4.27, methyl {(2S)-1-[(2S)-2-{5-[(2R,5R)-1-[4-(4-tert-butylpiperidin-1-yl)-3,5-difluorophenyl]-5-{6-fluoro-2-[(2S)-1-{(2S)-2-[(methoxycarbonyl)amino]-3-methylbutanoyl}pyrrolidin-2-yl]-1H-benzimidazol-5-yl}pyrrolidin-2-yl]-6-fluoro-1H-benzimidazol-2-yl}pyrrolidin-1-yl]-3-methyl-1-oxobutan-2-yl}carbamate]",< 0.1
4,"COC(=O)N[C@H](C(=O)N1CCC[C@H]1c1nc2cc([C@H]3CC[C@H](c4cc5nc([C@@H]6CCCN6C(=O)[C@@H](NC(=O)OC)C6CCOCC6)[nH]c5cc4F)N3c3cc(F)c(N4CCC(c5ccc(F)cc5)CC4)c(F)c3)c(F)cc2[nH]1)C1CCOCC1 [Example 3.53, dimethyl ([(2R,5R)-1-{3,5-difluoro-4-[4-(4-fluorophenyl)piperidin-1-yl]phenyl}pyrrolidine-2,5-diyl]bis{(6-fluoro-1H-benzimidazole-5,2-diyl)(2S)pyrrolidine-2,1-diyl[(1S)-2-oxo-1-(tetrahydro-2H-pyran-4-yl)ethane-2,1-diyl]})biscarbamate]",< 0.1
5,"COC(=O)N[C@H](C(=O)N1CCC[C@H]1c1nc2ccc([C@H]3CC[C@H](c4ccc5nc([C@@H]6CCCN6C(=O)[C@@H](NC(=O)OC)C(C)C)[nH]c5c4)N3c3ccc(N4CCC(F)(c5ccccc5)CC4)cc3)cc2[nH]1)C(C)C [Example 4.36, methyl {(2S)-1-[(2S)-2-{6-[(2R,5R)-1-[4-(4-fluoro-4-phenylpiperidin-1-yl)phenyl]-5-{2-[(2S)-1-{(2S)-2-[(methoxycarbonyl)amino]-3-methylbutanoyl}pyrrolidin-2-yl]-1H-benzimidazol-6-yl}pyrrolidin-2-yl]-1H-benzimidazol-2-yl}pyrrolidin-1-yl]-3-methyl-1-oxobutan-2-yl}carbamate]",< 0.1
6,"COC(=O)N[C@H](C(=O)N1CCC[C@H]1c1nc2cc([C@H]3CC[C@H](c4cc5nc([C@@H]6CCCN6C(=O)[C@@H](NC(=O)OC)C6CCOCC6)[nH]c5cc4F)N3c3cc(F)c(N4CCN(c5c(F)cccc5F)CC4)c(F)c3)c(F)cc2[nH]1)C1CCOCC1 [Example 3.51, dimethyl ([(2R,5R)-1-{4-[4-(2,6-difluorophenyl)piperazin-1-yl]-3,5-difluorophenyl}pyrrolidine-2,5-diyl]bis{(6-fluoro-1H-benzimidazole-5,2-diyl)(2S)pyrrolidine-2,1-diyl[(1S)-2-oxo-1-(tetrahydro-2H-pyran-4-yl)ethane-2,1-diyl]})biscarbamate]",< 0.1
7,"O=C([C@@H]1CCCO1)N1CCC[C@H]1c1nc2cc([C@H]3CC[C@H](c4ccc5[nH]c([C@@H]6CCCN6C(=O)[C@@H]6CCCO6)nc5c4)N3c3cc(F)c(N4CCC(c5ccccc5)CC4)c(F)c3)ccc2[nH]1 [Example 3.31, ({(2R,5R)-1-[3,5-difluoro-4-(4-phenylpiperidin-1-yl)phenyl]pyrrolidine-2,5-diyl}bis[1H-benzimidazole-5,2-diyl(2S)pyrrolidine-2,1-diyl])bis[(2S)-tetrahydrofuran-2-ylmethanone]]",< 0.1
8,"COC(=O)N[C@H](C(=O)N1CCC[C@H]1c1nc2cc([C@H]3CC[C@H](c4ccc5[nH]c([C@@H]6CCCN6C(=O)[C@@H](NC(=O)OC)C6CCOCC6)nc5c4)N3c3ccc(C(C)(C)C)cc3)ccc2[nH]1)C1CCOCC1 [Example 3.6, dimethyl ([(2R,5R)-1-(4-tert-butylphenyl)pyrrolidine-2,5-diyl]bis{1H-benzimidazole-5,2-diyl(2S)pyrrolidine-2,1-diyl[(1S)-2-oxo-1-(tetrahydro-2H-pyran-4-yl)ethane-2,1-diyl]})biscarbamate]",< 0.1
9,"COC(=O)N[C@H](C(=O)N1CCC[C@H]1c1nc2cc(F)c([C@H]3CC[C@H](c4cc5[nH]c([C@@H]6CCCN6C(=O)[C@@H](NC(=O)OC)C(C)C)nc5cc4F)N3c3cc(F)c(N4CCN(c5c(F)cccc5F)CC4)c(F)c3)cc2[nH]1)C(C)C [Example 6.16, methyl {(2S)-1-[(2S)-2-{6-[(2R,5R)-1-{4-[4-(2,6-difluorophenyl)piperazin-1-yl]-3,5-difluorophenyl}-5-{5-fluoro-2-[(2S)-1-{(2S)-2-[(methoxycarbonyl)amino]-3-methylbutanoyl}pyrrolidin-2-yl]-1H-benzimidazol-6-yl}pyrrolidin-2-yl]-5-fluoro-1H-benzimidazol-2-yl}pyrrolidin-1-yl]-3-methyl-1-oxobutan-2-yl}carbamate]",< 0.1
10,"COC(=O)N[C@H](C(=O)N1CCC[C@H]1c1nc2ccc([C@H]3CC[C@H](c4ccc5nc([C@@H]6CCCN6C(=O)[C@@H](NC(=O)OC)C(C)C)[nH]c5c4)N3c3cc(F)c(N4CCC(c5ccccn5)CC4)c(F)c3)cc2[nH]1)C(C)C [Example 2.13, methyl {(2S)-1-[(2S)-2-{5-[(2R,5R)-1-{3,5-difluoro-4-[4-(pyridin-2-yl)piperidin-1-yl]phenyl}-5-{2-[(2S)-1-{(2S)-2-[(methoxycarbonyl)amino]-3-methylbutanoyl}pyrrolidin-2-yl]-1H-benzimidazol-5-yl}pyrrolidin-2-yl]-1H-benzimidazol-2-yl}pyrrolidin-1-yl]-3-methyl-1-oxobutan-2-yl}carbamate]",< 0.1
